The values below are quoted from earlier work in patent publication US20190320628A1, “A NON-HUMAN ANIMAL MODEL OF NEURODEGENERATIVE DISORDERS” (priority 2016, published 2019).

The test system of one series is Wistar rats. To be noted: KA alone.
The subject of a further series is rats. To be noted: initial KA dose 5 mg/kg i.p., subsequent doses tailored.
A further series has as its system animals. To be noted: KA used to model human epilepsy, SE/cSE-based models.

Turning to `C=C(C)[C@H]1CN[C@H](C(=O)O)[C@H]1CC(=O)O` [KA, kainic acid], the “Non-responders among the surviving animals” value with Wistar rats is 20-40%. In addition, the Mortality entry is reported as “up to 30%” in the series with Wistar rats (SE terminated by diazepam) and “up to 50%” in the series on animals. The Mortality rate result in the series with rats was “around 15%”. Further, in the series on animals, the “Non-responders (surviving animals that never exhibit spontaneous seizures)” value is “up to 50%”.
